Measured values as given in article PMC7924852, “The Emericellipsins A–E from an Alkalophilic Fungus Emericellopsis alkalina Show Potent Activity against Multidrug-Resistant Pathogenic Fungi” (Journal of Fungi, 2021).

Key:
[1] = tested on: Aspergillus niger ATCC 16404; assay: Disc-diffusion antifungal assay; type: cell-based; conditions: 40 µg/disc; A. niger ATCC 16404
A. niger 1133 m [2] = assay: Disc-diffusion antifungal assay; type: cell-based, Aspergillus niger; conditions: 40 µg/disc, pathogenic clinical isolate
A. fumigatus VKM F-37 = assay: Disc-diffusion antifungal assay; type: cell-based, Aspergillus fumigatus; conditions: 40 µg/disc
A. fumigatus 390 m = assay: Disc-diffusion antifungal assay; type: cell-based, Aspergillus fumigatus; conditions: 40 µg/disc, pathogenic clinical isolate
A. terreus 497 = assay: Disc-diffusion antifungal assay; type: cell-based; conditions: 40 µg/disc; A. terreus 497, pathogenic clinical isolate
A. niger ATCC 16404 = assay: Broth two-fold microdilution MIC (CLSI); type: cell-based, Aspergillus niger; conditions: A. niger ATCC 16404; RPMI 1640 pH 7.0, 35 °C, 48 h, no visible growth
A. niger 1133 m [3] = assay: Broth two-fold microdilution MIC (CLSI); type: cell-based, Aspergillus niger; conditions: A. niger 1133 m clinical isolate; RPMI 1640 pH 7.0, 35 °C, 48 h
A. terreus 3 K = assay: Broth two-fold microdilution MIC (CLSI); type: cell-based; conditions: A. terreus 3 K; RPMI 1640 pH 7.0, 35 °C, 48 h
C. glabrata 1402 = assay: Broth microdilution MIC and MFC (CLSI); type: cell-based
C. krusei 1447 = assay: Broth microdilution MIC and MFC (CLSI); type: cell-based
[4] = tested on: Cryptococcus neoformans 297; assay: Broth microdilution MIC and MFC (CLSI); type: cell-based
C. laurentii 325m = assay: Broth microdilution MIC and MFC (CLSI); type: cell-based, Cr. laurentii
[5] = tested on: isolates of Aspergillus spp.; assay: Broth microdilution MIC, ranges over mould isolates; type: cell-based; conditions: range over opportunistic and clinical isolates of Aspergillus spp. (Table 4)
[6] = tested on: clinical yeast isolates (Candida, Cryptococcus); assay: Broth microdilution MIC/MFC, pathogenic multidrug yeast strains; type: cell-based; conditions: isolates of C. albicans, C. glabrata and C. neoformans
[7] = tested on: B16 (mouse melanoma cell line); assay: MTT cytotoxicity assay; type: cell-based; conditions: 72 h, three experiments, each in triplicate
Description: (§1) Experiments for determining the cytotoxic activity of the compound in MTT assays were performed as previously described. The following tumor cell lines were used for this study: HCT-116 (colon cancer cell line), B16 (mouse melanoma cell line), K-562 (leukemia cell line), MDA-MB-231 (breast cancer line), and MCF-7 (breast cancer cell). Human postnatal fibroblasts were used as a normal cell line, and doxorubicin was used as a positive control. The cell lines were cultured in Dulbecco modified Eagle’s medium supplemented with 5% fetal calf serum, 2 mM Lglutamine, 100 U/mL penicillin, and […] streptomycin at 37 °C, 5% CO2 in a humidified atmosphere. Experiments were carried out on cells in the logarithmic phase of growth. The peptide was dissolved in DMSO as a 10 mM stock solution, followed by serial dilutions in water immediately before the experiment. Briefly, cells (5 × 10^3 in […] of culture medium) were plated in a 96-well plate and treated with 0.1% DMSO (blank control) or with […] of the peptide (0.10‒50 μM; each concentration in duplicate) for 72 h. After incubation with peptide, […] of aqueous MTT solution (3-(4,5-dimethylthiazol-2-yl)-2,5-diphenyltetrazolium bromide, 5 mg/mL) were added into each well for 2‒3 h. Formazan was dissolved in DMSO, and the absorbance at 570 nm was measured. The cytotoxicity at a given EmiA concentration was calculated as the percentage of absorbance in wells with peptide-treated cells compared to that of blank control cells (100%). The IC50 (50% growth inhibitory concentration) was defined as the concentration of EmiA that inhibited MTT conversion by 50%. All the experiments were repeated three times, each time in triplicate. EmiA was tested at a range of concentrations, 0.1‒10 μM.

[8] = tested on: HCT-116 (colon cancer cell line); assay: MTT cytotoxicity assay; type: cell-based; conditions: 72 h, three experiments, each in triplicate
Description: as §1

[9] = tested on: HPF (human postnatal fibroblasts, normal cell line); assay: MTT cytotoxicity assay; type: cell-based
Description: as §1

[10] = tested on: MCF-7 (breast cancer cell); assay: MTT cytotoxicity assay; type: cell-based; conditions: 72 h, three experiments, each in triplicate
Description: as §1

[11] = tested on: MDA-MB-231 (breast cancer line); assay: MTT cytotoxicity assay; type: cell-based; conditions: 72 h, three experiments, each in triplicate
Description: as §1

[12] = tested on: K-562 (leukemia cell line); assay: MTT cytotoxicity assay; type: cell-based; conditions: 72 h, three experiments, each in triplicate
Description: Experiments for determining the cytotoxic activity of the compound in MTT assays were performed as previously described [24]. The following tumor cell lines were used for this study: HCT-116 (colon cancer cell line), B16 (mouse melanoma cell line), K-562 (leukemia cell line), MDA-MB-231 (breast cancer line), and MCF-7 (breast cancer cell). […] The cell lines were cultured in Dulbecco modified Eagle’s medium supplemented with 5% fetal calf serum, 2 mM Lglutamine, 100 U/mL penicillin, and 100 mg/mL streptomycin at 37 °C, 5% CO2 in a humidified atmosphere. Experiments were carried out on cells in the logarithmic phase of growth. The peptide was dissolved in DMSO as a 10 mM stock solution, followed by serial dilutions in water immediately before the experiment. Briefly, cells (5 × 10^3 in 190 mL of culture medium) were plated in a 96-well plate and treated with 0.1% DMSO (blank control) or with 10 mM of the peptide (0.10‒50 μM; each concentration in duplicate) for 72 h. After incubation with peptide, 20 mL of aqueous MTT solution (3-(4,5-dimethylthiazol-2-yl)-2,5-diphenyltetrazolium bromide, 5 mg/mL) were added into each well for 2‒3 h. Formazan was dissolved in DMSO, and the absorbance at 570 nm was measured. […] All the experiments were repeated three times, each time in triplicate.

Hela cell line = conditions: previous study; cited from earlier work
Description: (§2) Accordingly, despite the high IC50 values for this molecule, fairly significant amounts of antibiotic are required to suppress the cell growth in vitro. The calculated therapeutic index value is sufficiently high due to a low cytotoxicity level for normal cells, which is an undeniable advantage over both pre-scorubicin and most other antitumor compou ...

HepG2 cell line = conditions: previous study; cited from earlier work
Description: as §2

## Methyldecanoyl-MePro-AHMOD-Ala-Aib-Ile-Iva-βAla-Alaol-Glyol [EmiA, emericellipsin A, nonribosomal lipopeptaibol, major compound of E. alkalina VKPM F1428]
[1]
  Zone of Inhibition: 25 ± 0.21 mm
A. niger 1133 m [2]
  Zone of Inhibition: 18 ± 0.27 mm
A. fumigatus VKM F-37
  Zone of Inhibition: 20 ± 0.3 mm
A. fumigatus 390 m
  Zone of Inhibition: 20 ± 0.40 mm
A. terreus 497
  Zone of Inhibition: 14 ± 0.28 mm
A. niger ATCC 16404
  Minimal Inhibitory Concentration (MIC): 4 µg/mL
A. niger 1133 m [3]
  Minimal Inhibitory Concentration (MIC): 4 µg/mL
A. terreus 3 K
  Minimal Inhibitory Concentration (MIC): 0.5 µg/mL
C. glabrata 1402; C. glabrata 1402, lowest concentration causing 95% death
  MFC: 0.5 µg/mL
C. glabrata 1402; C. glabrata 1402 clinical isolate, RPMI 1640 pH 7.0, 35 °C, 24 h
  MIC: 0.25 µg/mL
C. krusei 1447; C. krusei 1447, lowest concentration causing 95% death
  MFC: 2 µg/mL
C. krusei 1447; C. krusei 1447 clinical isolate, RPMI 1640 pH 7.0, 35 °C, 24 h
  MIC: 0.5 µg/mL
[4]; Cryptococcus neoformans 297, lowest concentration causing 95% death
  MFC: 0.5 µg/mL
[4]; Cryptococcus neoformans 297 clinical isolate, RPMI 1640 pH 7.0, 35 °C, 24 h
  MIC: 0.5 µg/mL
C. laurentii 325m; C. laurentii 325m clinical isolate, RPMI 1640 pH 7.0, 35 °C, 24 h
  MIC: 0.5 µg/mL
C. laurentii 325m; C. laurentii 325m, lowest concentration causing 95% death
  MFC: 0.5 µg/mL
[5]
  MIC range: 0.5 to 4 µg/mL
[6]
  MIC/MFCs range: 0.25 to 4 µg/mL
[7]
  IC50: 16 ± 2.08 µM
[8]
  IC50: 2.3 ± 0.3 µM
[9]; HPF normal fibroblasts, MTT, 72 h, three experiments, each in triplicate
  IC50: 11.5 ± 1.5 µM
[9]; interaction with PFH, relative to doxorubicin
  antiproliferative activity inferior to doxorubicin: 60 times
[10]
  IC50: 11 ± 1.2 µM
[11]
  IC50: 8 ± 1.04 µM
[12]
  IC50: 1 ± 0.14 µM
Hela cell line
  EC50: < 0.5 µM
HepG2 cell line
  EC50: 2.8 µM
